# Where two headings read alike, the source gives them in different places.
# Legend:
# [1] = tested on: β-lactamase harboring P. aeruginosa isolates; assay: MIC against β-lactamase harboring isolates; assay type: cell-based; settings: Pseudomonas aeruginosa, 18 h
# From the text: (§1) Since the main resistance mechanism against BL antibiotics is the hydrolysis by β-lactamase enzymes (46), it is imperative that the synergy evaluation is extended to P. aeruginosa strains containing these enzymes. Based on the results of the checkerboard assays against the MDR strains, the synergy of 5 and 8 with ceftazidime and aztreonam was further assessed against β-lactamase harboring P. aeruginosa isolates. These strains are characterized by their increased susceptibility to ceftazidime with the addition of avibactam. In addition, a triple combination therapy consisting of the tobramycin derivative, either BL antibiotic and avibactam was also investigated.
# The broth microdilution assay was performed in accordance with standard protocols as previously described (61). An inoculum of the culture was diluted in 0.85% saline solution to attain 0.5 McFarland turbidity. The inoculum was further diluted in Mueller-Hinton broth (MHB) for inoculation to a final concentration of 5×10^5 colony forming units/mL (CFU/mL). The agents were serially diluted two-fold in CA-MHB in a 96-well plate. […] After incubation, Molecular Devices (United States) Emax Plus microplate reader was used to measure the optical density (OD) at a wavelength of 590 nm to confirm the turbidity. The minimum inhibitory concentration (MIC) was determined as the lowest concentration that inhibited visible bacterial growth.
# PA 86052 = assay: Time-kill kinetics assay, PA 86052; assay type: cell-based, Pseudomonas aeruginosa
# Protocol: (§2) To elucidate the mechanistic killing of the triple combination studies, the time-kill kinetics assay was performed as previously described (32). […] 8 μg/mL of ceftazidime and 2 μg/mL avibactam were used to reflect the clinically used 4:1 ratio.
# (§3) Time-kill curve analyses were performed as previously described (32). An inoculum of the culture was then diluted in 0.85% saline solution to attain 0.5 McFarland turbidity. The inoculum was further diluted in lysogeny broth (LB) containing different antibiotic and adjuvant concentrations. The culture tubes were incubated at 37° C., shaking at 250 rpm. At specific time intervals, an aliquot was taken from each tube, serially diluted in sterile phosphate-buffered saline (PBS) and plated on LB agar plates. The plates were incubated at 37° C. overnight and the bacterial colonies were counted the subsequent day. The bactericidal or bacteriostatic activity was determined based on the decrease in CFU over the designated time period. Bactericidal activity corresponded to ≥3 log reduction in CFU/mL, while bacteriostatic activity corresponded to <3 log reduction in CFU/mL.
# PA 107092 = assay: Time-kill kinetics assay, PA 107092; assay type: cell-based, Pseudomonas aeruginosa
# Protocol: as §2, §3
# HEK293 cells = assay: Cell viability (cytotoxicity) assay, HEK293; assay type: cell-based, human; settings: for cell viability compared to non-guanidinylated counterpart: HEK293, higher concentrations; for cell viability compared to 1: HEK293, up to 600 μM
# Protocol: (§4) As an initial screening of the toxicity, the cell viability of the tobramycin derivatives was assessed in human embryonic kidney (HEK) 293 cell lines. Polymyxin B was utilized as […] and by being a membrane permeabilizing amphiphile resembling the tobramycin derivatives.
# (§5) The cytotoxicity assay was conducted as previously described (24, 30). HEK293 cells were cultured in flasks with Dulbecco's Modified Eagle's Medium (DMEM) supplemented with 10% fetal bovine serum. The cells were incubated at 5% CO2 in a humidified atmosphere at 37° C. 50 μL of media containing approximately 8000 cells were added to designated wells in a 96-well plate. The wells containing only media with no cells served as blanks. The plate was incubated for 24 h. A volume of 50 μL of doubled the final desired concentrations of the agent were subsequently added to the experimental and blank wells. After 48 h incubation, PrestoBlue reagent from Invitrogen (United States) was added to a final concentration of 10% (v/v) and plates were incubated for an additional 1 hour at 5% CO2. Fluorescence was measured with excitation and emission wavelengths of 560 and 590 nm, respectively, using the Molecular Devices (United States) SpectraMax M2 plate reader. Values from the blank wells were subtracted from the corresponding wells with cells. The cell viability relative to the controls with vehicle was calculated. The plots indicate the mean±standard deviation of two experiments with five samples each.
# P. aeruginosa PAO1 [2] = assay: Checkerboard synergy with β-lactam antibiotics, PAO1; assay type: cell-based, Pseudomonas aeruginosa; settings: for active concentration: equivalent to 6 μM
# Protocol: After establishing the MIC of the tobramycin derivatives, the ability of these adjuvants to synergize with BL antibiotics was investigated against P. aeruginosa PAO1. The checkerboard assays were conducted as previously described and in accordance with the CLSI guidelines (37). Synergy was defined by at least a 4-fold reduction in the MICs of both adjuvant and antibiotic. The panel of antibiotics are comprised of commonly used antipseudomonal agents and represent the different BL subclasses—cephalosporin (ceftazidime), monobactam (aztreonam), penicillin (piperacillin) and carbapenems (imipenem and meropenem) (12).
# The checkerboard assay was conducted as previously described (61). The bacterial solution was prepared as described in the broth microdilution method. The antibiotic of interest was serially diluted two-fold along the x-axis, and the adjuvant is serially diluted two-fold along the y-axis in a 96-well plate. Equal volumes of bacterial solution were added to the designated wells. The first row and columns are used to verify the MIC of the antibiotic and adjuvant, respectively. The well containing only broth served as negative control, while the well containing the broth and bacterial solution served as positive control. The plate was then incubated at 37° C. for 18 hours. After incubation, Molecular Devices (United States) Emax Plus microplate reader was used to measure the OD at a wavelength of 590 nm. Synergy was determined by at least a 4-fold reduction of the MIC of both agents.
# [3] = tested on: MDR clinical isolates of P. aeruginosa; assay: MIC against MDR clinical isolates; assay type: cell-based; settings: Pseudomonas aeruginosa, 18 h; all MDR strains tested, alone
# Protocol: The synergism of the guanidinylated amphiphilic tobramycin derivatives with ceftazidime, aztreonam and piperacillin against PAO1 prompted further investigation against MDR clinical isolates of P. aeruginosa. Prior to the checkerboard assays, the MICs of 5 and 8 were determined to be >128 μg/mL against all strains tested.
# All antibiotics were purchased from commercial sources. Bacterial isolates were obtained from the American Type Culture Collection (ATCC), and from the Canadian National Intensive Care Unit (CAN-ICU) (59) and Canadian Ward (CANWARD) surveillance studies (60). CAN-ICU and CANWARD clinical isolates were collected from patients with presumed infectious diseases admitted in participating Canadian medical centers either to the intensive care unit or medical wards. Prior to microbiological testing, bacterial cultures were grown overnight in lysogeny broth (LB) at 37° C., shaking at 250 rpm.
# The broth microdilution assay was performed in accordance with standard protocols as previously described (61). […] After incubation, Molecular Devices (United States) Emax Plus microplate reader was used to measure the optical density (OD) at a wavelength of 590 nm to confirm the turbidity. The minimum inhibitory concentration (MIC) was determined as the lowest concentration that inhibited visible bacterial growth.
# P. aeruginosa PAO1 [4] = assay: Potentiation of rifampicin, PAO1; assay type: cell-based, Pseudomonas aeruginosa
# From the text: Another evidence of OM permeabilization is the ability of the guanidinylated amphiphilic tobramycin derivatives to synergize with membrane-impermeable antibiotics such as rifampicin. 5 and 8 potentiated rifampicin by 16- and 64-fold, respectively, against PAO1. Rifampicin has limited capacity in crossing the OM of Gram-negative bacteria, and is restricted to treating infections caused by Mycobacteria and Gram-positive cocci (48). Unlike the BL antibiotics that permeate the OM through a porin-mediated uptake, the large molecular weight and hydrophobicity of rifampicin make it unable to enter the narrow porins, and rely on slow passive diffusion to traverse the lipid bilayer (49). Therefore, the augmented potency of rifampicin against P. aeruginosa is linked to its increased intracellular concentration through OM destabilization.
# (§6) The checkerboard assay was conducted as previously described (61). The bacterial solution was prepared as described in the broth microdilution method. The antibiotic of interest was serially diluted two-fold along the x-axis, and the adjuvant is serially diluted two-fold along the y-axis in a 96-well plate. Equal volumes of bacterial solution were added to the designated wells. […] After incubation, Molecular Devices (United States) Emax Plus microplate reader was used to measure the OD at a wavelength of 590 nm. […]
# [5] = Cell viability (cytotoxicity) assay, HEK293; assay type: cell-based, human; settings: human, hek293 cells
# Protocol: as §4, §5
# [6] = tested on: β-lactamase harboring P. aeruginosa isolates; assay: Checkerboard dual and triple combinations, β-lactamase harboring isolates; assay type: cell-based, Pseudomonas aeruginosa; settings: checkerboard assays
# From the text: as §1
# as §6, with “wells. The first row and columns are used to verify the MIC of the antibiotic and adjuvant, respectively.” for “wells.”
compound,measurement,setting,value
"CC(C)(O/N=C(\C(=O)N[C@@H]1C(=O)N2C(C(=O)[O-])=C(C[n+]3ccccc3)CS[C@H]12)c1csc(N)n1)C(=O)O [ceftazidime, reference compound]",MIC,"[1]; all five β-lactamase harboring strains, read-out: MIC of ceftazidime monotherapy",64 to 128 µg/mL
same,antibacterial effect over 24 h,"PA 86052; 8 μg/mL ceftazidime, 2 μg/mL avibactam",did not exhibit any antibacterial effect
same,"antibacterial effect over 24 h, monotherapy",PA 107092; 8 μg/mL ceftazidime,ineffective
"N=C(N)NC[C@H]1O[C@H](O[C@H]2[C@H](O)[C@@H](O[C@H]3O[C@H](CO)[C@@H](O)[C@H](NC(=N)N)[C@H]3O)[C@H](NC(=N)N)C[C@@H]2NC(=N)N)[C@H](NC(=N)N)C[C@@H]1O [Compound 2, guanidinylated tobramycin, reference compound]",cell viability compared to non-guanidinylated counterpart,HEK293 cells,slight decrease in the cell viability
"CCCCCCCCOC1C(OC2OC(CNC(=N)N)C(O)CC2NC(=N)N)C(NC(=N)N)CC(NC(=N)N)C1OC1OC(CO)C(O)C(NC(=N)N)C1O (stereo not shown) [Compound 5, 5-O-(Octyl)-guanidinotobramycin]",active concentration,P. aeruginosa PAO1 [2],~ 8 μg/mL
same,MIC,[3],> 128 µg/mL
same,fold potentiation of rifampicin,P. aeruginosa PAO1 [4],16 fold
same,"viability at 48 h, 600 µM","[5]; HEK293, 600 μM",63.8%
same,cytotoxicity compared to PMB,"HEK293 cells; HEK293, 600 μM",comparable toxicity
"N=C(N)NC[C@H]1O[C@H](O[C@H]2[C@H](OCc3ccc(-c4ccccc4)cc3)[C@@H](O[C@H]3O[C@H](CO)[C@@H](O)[C@H](NC(=N)N)[C@H]3O)[C@H](NC(=N)N)C[C@@H]2NC(=N)N)[C@H](NC(=N)N)C[C@@H]1O [Compound 8, 5-O-(4-Methylbiphenyl)-guanidinotobramycin]",active concentration,P. aeruginosa PAO1 [2],~ 8 μg/mL
same,MIC,[3],> 128 µg/mL
same,lowest concentration wherein synergy was observed,[6],8 µg/mL
same,"log reduction in CFU/mL, triple combination","PA 86052; 8 μg/mL of 8, ceftazidime 8 μg/mL, avibactam 2 μg/mL, within 8 hours",> 3 log
same,"time to bactericidal effect, triple combination",PA 86052; 8 with ceftazidime/avibactam,≤ 8 h
same,"log reduction in CFU/mL, triple combination","PA 107092; 8 μg/mL of 8, ceftazidime 8 μg/mL, avibactam 2 μg/mL, at 4 hours",3 log
same,fold potentiation of rifampicin,P. aeruginosa PAO1 [4],64 fold
same,"viability at 48 h, 600 µM","[5]; HEK293, 600 μM",79.8%
same,selectivity ratio,"[5]; HEK293, active concentration 8 μg/mL, read-out: non-cytotoxic concentration (600 μM, 848.04 μg/mL) as multiple of active concentration",~106
same,cytotoxicity up to approximately 106 times the active concentration,HEK293 cells; HEK293,non-cytotoxic
same,cytotoxicity compared to PMB,"HEK293 cells; HEK293, 600 μM",reduced cytotoxicity than PMB
same,cell viability compared to non-guanidinylated counterpart,HEK293 cells,slight decrease in the cell viability
CCCCCCCCCCCCOC1C(OC2OC(CN)C(O)CC2N)C(N)CC(N)C1OC1OC(CO)C(O)C(N)C1O (stereo not shown) [Compound 3],cytotoxicity,"HEK293 cells; HEK293, at 600 μM, relative to tobramycin","highly toxic relative to tobramycin, causing cell death at 600 μM"
"NC[C@H]1O[C@H](O[C@H]2[C@H](OCc3ccc(-c4ccccc4)cc3)[C@@H](O[C@H]3O[C@H](CO)[C@@H](O)[C@H](N)[C@H]3O)[C@H](N)C[C@@H]2N)[C@H](N)C[C@@H]1O [Compound 7, 5-O-(4-Methylbiphenyl)-tobramycin]","viability at 48 h, 600 µM","[5]; HEK293, up to 600 μM",86 to 101%
same,cell viability compared to 1,HEK293 cells,comparable to 1
"COc1cccc2c1C(=O)c1c(O)c3c(c(O)c1C2=O)C[C@@](O)(C(=O)CO)C[C@@H]3O[C@H]1C[C@H](N)[C@H](O)[C@H](C)O1 [Doxorubicin, reference compound]","viability at 48 h, 125 µM","[5]; HEK293, 125 μM",0%
"CCCCCCCCOC1C(OC2OC(CN)C(O)CC2N)C(N)CC(N)C1OC1OC(CO)C(O)C(N)C1O (stereo not shown) [Compound 4, 5-O-(Octyl)-tobramycin]","viability at 48 h, 600 µM","[5]; HEK293, up to 600 μM",86 to 101%
same,cell viability compared to 1,HEK293 cells,comparable to 1
"Polymyxin B [PMB, reference compound]",cell viability,"HEK293 cells; HEK293, 600 μM, 2880 min",64.7%
C[C@H]1[C@H](NC(=O)/C(=N\OC(C)(C)C(=O)O)c2csc(N)n2)C(=O)N1S(=O)(=O)O [aztreonam],MIC,"[1]; five β-lactamase harboring strains, read-out: MIC of aztreonam monotherapy",32 to 128 µg/mL
"NCCCCCCCCOC1C(OC2OC(CN)C(O)CC2N)C(N)CC(N)C1OC1OC(CO)C(O)C(N)C1O (stereo not shown) [Compound 6, 5-O-(8-Aminooctyl)-tobramycin]",fold potentiation of ceftazidime,"P. aeruginosa PAO1 [2]; PAO1, 8 μg/mL of adjuvant",4 fold
same,cell viability at 600 μM compared to 4,"HEK293 cells; HEK293, 600 μM",lower in comparison to 4
